Data taken from US7109329B2, “Neurologically active compounds and compounds with multiple activities” (priority 1988, dated 2006).

Key:
[1] = Formation of scar tissue at the trauma site; type: in vivo
Excerpt: It is believed that these mixed agonists interfere with triple helix formation in the synthesis of collagen protein, thus preventing or reducing the formation of hard scar tissue at the trauma site.
The purpose of liquid nitrogen is to reduce the structural integrity of the collagen laden, glial scar tissue, by freezing and defrosting. Collagenase then initiates a debridgement of the scar without attacking the nervous and osseous tissue. If required, streptokinase, or alteplase, both plasminogen activators can also be used to bring about a complete debridgement. In addition to 3-amino-propionitrile (a latherogen), 5-fluorodeoxyuridine and dehydroproline can be used to arrest further glial and fibroblastic invasion of the scar region, respectively.

[2] = Anesthesia in rats judged by reflexes and wakefulness; conditions: for anesthetic state of the treated rats: 4 mg I.P., room temperature 21.5° C.; for appearance of ears and digits of anesthetized animals / reflexes tested (as in Examples 48–53): guanabenz acetate 12 mg/kg; for appearance of ears and digits of anesthetized animals / survival at the given doses / reflexes tested (as in Examples 48–53): pentabarbital 25 mg/kg, ketamine 80 mg/kg; for reflexes tested (as in Examples 48–53): room temperature 19.4° C.; for anesthesia judged by reflexes (patellar, urethro-anal, startle, corneal etc.) after 30 minutes: room temperature 21° C., G 12 mg/kg, D 6 mg/kg or combination
[3] = Core temperature of treated rats in a room at minus 30° C.; type: in vivo, rat; conditions: four rats, 4 mg intraperitoneally, placed about 30 minutes after injection
Procedure: (room temperature). […] (plus or minus 0.5° C.). The core temperatures of the four treated rats, as well as that of two control rats who received only the dextrose solution, were continuously monitored.

[4] = Intravenous anesthesia of a 70 kg mammal; type: in vivo
Procedure: Thereafter, an intravenous injection containing 20 mg of aminophylline is administered over a period of five minutes. The large mammal is fully awakened within about 20 minutes, appearing alert and refreshed.
The period of time required to fully reverse the anesthesia can be increased or decreased by proportionally changing the amount of the antagonist. After metabolism of guanabenz, the mammal will spontaneously awaken, within about three to six hours after the I.V. drip is discontinued.

[5] = Electrical tail stimulation, vocalization threshold (anesthesia) in rats; type: in vivo, rat
Procedure: A fifth rat was treated with merely an equal amount of the dextrose solution without guanabenz acetate. The rats were subjected to an electrical tail stimulation, by electrodes attached to their tails, to determine the point of positive (threshold) vocalization.
The normal vocalization threshold, and the point at which the control rat vocalized was approximately 7 volts. […] To bring the rats out of anesthesia, the rats were then injected with 40 mgs. of aminophylline, also in 1 ml of a 5% aqueous dextrose solution. […] The normal threshold for vocalization was reestablished, as there was no vocalization at 6 volts following recovery from anesthesia.
The rats were maintained under anaesthesia for a period of 50 minutes before injection of the aminophylline.

[6] = Brain and core temperature of treated rats in a room at 4°–5°; type: in vivo, Sprague-Dawley rats; conditions: 12 mg/kg IP
Procedure: All sixteen rats were placed in a temperature-controlled room maintained at 4°–5° d. immediately after injection.

[7] = Spinal cord transection in rats: recovery of hind limb function and reflexes under treatment; type: in vivo, rat
Procedure: The spinal cord of a group of rats was completely transected. After surgery, the rats were treated with guanabenz.
The rats presented with a condition of bloody eyes and nose for a period of 2 to 5 days after the transection. During the first two-weeks, proper plantar placement, weight bearing on the hind limbs and/or coordinated walking was not present.
In a further group of six rats the spinal cord was transected in accordance with the above Comparative Examples. After surgery and cleaning and mechanical treatment of the wounds in the same fashion, an intraperitoneal injection of 7-(guanidino-acetyl-theophylline (“C”) was administered at a dose of 5.0 mg/kg 24 hours post surgery. Within a 7 to 9 day period, the rats engaged in walking movements of the hind limbs coordinated with those of the front limbs and the hind limbs, including proper plantar placement and full weight bearing on the hind limbs.
Within 36 hours after the spinal cord transection, i.e., only 12 hours after initial administration of Compound C, the initial bloody eyes and nose condition had abated. […] Further the animals were alert and continued to eat in substantially normal quantities.
Starting 24 hours post-transection, immediately after each intraperitoneal administration of Compound C, reflexes such as the tail-flick and cross-extension would return, within 12 minutes post injection. […] Within 8 to 11 days the response became sustained, and was accompanied by long-term therapeutic restoration of coordinated movements, plantar placements and weight-bearing by the hind limbs.

[8] = Spinal cord trauma (500 g-cm weight drop at T4) in cats: urinary bladder function, micturition; type: in vivo, cat
Procedure: A cat was anesthetized using intravenous pentobarbital (30 mg/kg) after which its arterial blood pressure was continuously monitored for at least two hours. After recording stable arterial blood pressure, a dorsal laminectomy was performed in the thoracic region of the cat from T3 to T5; after restoration of blood pressure, the cat was traumatized by means of a twenty gram weight being dropped from a height of twenty-five centimeters (500 g-cm force) on the exposed dura of the spinal cord at the fourth thoracic segment.
Ten cats were spinally traumatized in accordance with the procedure set forth above in Comparative Example A. Five of these spinal cats were treated with Compound C commencing three hours after trauma and five of the cats were treated with guanabenz beginning at the same time.
Spinalized cats required eight weeks of treatment with guanabenz before regaining controlled micturition. Cats treated with Compound C, required only three to five weeks of treatment to achieve the same results.

[9] = for mean intraperitoneal temperature / temperatures of the liver and the kidneys: 4 mg I.P.; for mean intraperitoneal temperature / temperatures of the liver and the kidneys / core temperature (colonic measurement) after drop: room temperature 21.5° C.; for core temperature (colonic measurement) after drop: eight rats each, 4 mg I.P. in 5% dextrose, normal value 36.5° C.; for mean core temperature one hour after injection: room temperature 19.4° C., guanabenz acetate 12 mg/kg, pentabarbital 25 mg/kg, ketamine 80 mg/kg; for mean core temperature one hour after injection / core temperature twenty minutes after injection: I.P.; for core temperature allowed to fall to: ambient 21° C., before transfer to 42° C. room (guanabenz: after about 15 minutes); for core temperature twenty minutes after injection: G 12 mg/kg, D 6 mg/kg or combination
Procedure: Room temperature was 21.5° C.
The core temperatures of the rats were allowed to fall to approximately 30° C., after about 15 minutes. At that time, the rats were placed in a temperature controlled room maintained at 42° C., together with 2 control rats treated only with the dextrose solution.
The core temperatures of the rats were allowed to fall to approximately 30° C. At that time, the rats were placed in a temperature controlled room maintained at 42° C., together with two control rats treated only with the dextrose solution.

[10] = Reversal of guanabenz-induced anesthesia and hypothermia by antagonists; type: in vivo, rat
[11] = Core temperature and behaviour of treated rats in a room at 42° C.; type: in vivo, rat; conditions: 4 mg intraperitoneally; for core temperature in the 42° C. room: placed at core temperature about 30° C.
[12] = Blood pressure after administration, sheep; type: in vivo
[13] = Spasticity in previously untreated spinal cord transected rats (Working Example 2); type: in vivo, rat; conditions: 4.0 mg/kg BID intraperitoneally for 7 days
Excerpt: It was noted that some of the untreated rats in Comparative Example A developed severe spasticity three weeks after transection.

[14] = Blood pressure after administration, cat; type: in vivo
[15] = Sprague-Dawley rats, 4 mg, tolazoline 4 mg intravenously about twenty minutes before
[16] = guanabenz-treated rats (4 mg I.P.), Yohimbine 10 mg I.P.
[17] = 5.0 mg/kg intraperitoneal 24 hours post surgery

SMILES: N=C(N)NN [Aminoguanidine]
- effect on formation of the scar [1]: interfere with formation of the scar

SMILES: Clc1cccc(Cl)c1N=C1NCCN1 [clonidine]
- effect on formation of the scar [1]: interfere with formation of the scar

SMILES: N=C(N)N/N=C/c1c(Cl)cccc1Cl [guanabenz]
- anesthetic state of the treated rats [2]: anesthetized
- I.P. amount sufficient to initially place the rats in an anesthetized condition ([2]; laboratory rats, I.P.): 12 mg per kilogram of body weight
- core temperature approximately 15 minutes after placement in the cold room [3]: ~16 °C
- total amount in the initial single dose for anesthetic and hypothermic effect ([4]; 60 to 75 kg mammal, intravenous injection): ≤ 0.5 mg/kg
- reaction to noxious stimulation and corneal reflex ([4]; 70 kg mammal, 6 mg intravenous): does not overtly react to the noxious stimulation of pin-pricks
- time after injection until profound anesthesia ([4]; 70 kg mammal, 6 mg intravenous over three minutes): five
- additional duration of profound anesthesia after the drip ([4]; 70 kg mammal, drip 0.1 mg/ml at 1 ml/min for 30 minutes from about 120 minutes after the initial injection): about two
- time to spontaneous awakening after the I.V. drip is discontinued ([4]; large mammal, after metabolism of guanabenz): three to six
- duration of anesthesia without further administration [5, 15]: four
- time until anesthetized [5, 15]: five
- vocalization threshold on electrical tail stimulation (failed to vocalize) ([5]; rats 310–350 g, 4 mg intraperitoneally, beginning seven minutes after injection, normal threshold 7 volts): > 10 volts
- vocalization threshold on electrical tail stimulation (no vocalization response) ([5]; rats, 4 mg intraperitoneally, thereafter (profoundly anesthetized)): > 40 Volts
- behavior after the experiment [6]: resume normal behavior
- core temperature lower than the brain temperature by ([6]; ultimately): 10 °C
- mean brain temperature after 45 minutes ([6]; 8 rats, original mean 37° C.): 27 °C
- muscle mass of hind limbs ([7]; spinal transected rats under I.P. treatment): some, but not significant loss of muscle mass
- duration of sedation following each administration ([7]; spinal transected rats, 0.65 mg/kg I.P. twice per day from 72 hours after the lesion): 2 to 4 h
- time of treatment until proper plantar placement, weight bearing on the hind limbs and coordinated walking movements ([7]; spinal transected rats, 0.65 mg/kg I.P. twice per day, majority of the rats): third week
- effect on formation of the scar [1]: interfere with formation of the scar
- urinary bladder function at urodynamic examination ([8]; spinal cats, 0.65 mg/kg bid from three hours after trauma, guanabenz four to five weeks after treatment began, Compound C after seven to twenty-one days): tight urinary sphincter and dyssinergia
- treatment required before regaining controlled micturition ([8]; spinalized cats): eight
- mean intraperitoneal temperature [9]: 31.5 °C
- temperatures of the liver and the kidneys [9]: about 33.5 °C
- core temperature (colonic measurement) after drop [9]: 22.5 °C
- core temperature after drop ([9]; four rats, 4 mg intraperitoneally, room temperature 21° C., before cold room): 21 °C

SMILES: Cn1c(=O)c2[nH]cnc2n(C)c1=O [aminophylline]
- time until fully awakened from guanabenz anesthesia ([4]; 70 kg mammal, 20 mg aminophylline intravenous over five minutes): ≤ 20 min
- voltage at which vocalization was present ([5]; guanabenz-anesthetized rats, 40 mgs. aminophylline, by 8 minutes after injection): 7 volts
- voltage at which vocalization returned ([5]; guanabenz-anesthetized rats, 40 mgs. aminophylline, within 6 minutes after injection): 12 volts
- effect on guanabenz-induced anesthesia [10, 16]: caused them to awaken
- effect on guanabenz-induced hypothermia (body temperature) [10, 16]: practically no effect on body temperature
- effect of injection on melazine-treated rats ([10]; three melazine-treated rats): no discernible effect

SMILES: COc1cc(C=NNc2ncc[nH]2)cc(OC)c1OC [Compound 13, Melazine]
- anesthetic state of the treated rats [2]: remained awake
- mean intraperitoneal temperature [9]: 30.2 °C
- temperatures of the liver and the kidneys [9]: ~32.7 °C
- core temperature (colonic measurement) after drop [9]: 21.5 °C

SMILES: CNC1(c2ccccc2Cl)CCCCC1=O (stereo not drawn) [ketamine]
- appearance of ears and digits of anesthetized animals ([2]; I.P.): semi-cyanotic
- survival at the given doses ([2]; I.P.): did not survive
- reflexes tested (as in Examples 48–53) ([2]; I.P.): disappeared
- mean core temperature one hour after injection [9]: 34.5 °C

SMILES: Clc1cccc(Cl)c1C=Nc1nc(N=Cc2c(Cl)cccc2Cl)nc(N=Cc2c(Cl)cccc2Cl)n1 [Compound 18, 2,4,6-Tris (2,6-dichlorobenzylideneamino)-1,3,5-s-Triazine]
- state of treated rats in the 42° C. room [11]: remained calm, but active
- core temperature in the 42° C. room [11]: 30 °C
- core temperature allowed to fall to ([9]; 4 mg intraperitoneally): approximately 30 °C

SMILES: N=C(N)N/N=C/c1c(Cl)cccc1Cl [guanabenz acetate]
- reflexes tested (as in Examples 48–53) ([2]; I.P.): disappeared
- anesthesia judged by reflexes (patellar, urethro-anal, startle, corneal etc.) after 30 minutes ([2]; I.P.): profound anesthesia
- state of treated rats in the 42° C. room [11]: remained under anesthesia
- core temperature in the 42° C. room [11]: 30 °C
- core temperature allowed to fall to ([9]; 4 mg intraperitoneally): approximately 30 °C
- mean core temperature one hour after injection [9]: 24.3 °C
- core temperature twenty minutes after injection ([9]; room temperature 21° C.): about 31 °C

SMILES: Cn1c(=O)c2c(ncn2CC(=O)NC(=N)N)n(C)c1=O [C, Guanidino-7-Acetyltheophylline]
- blood pressure immediately after administration [12]: slight increase
- time until blood pressure returned to basal level [12]: ≤ 10 min
- time after initial administration until bloody eyes and nose condition had abated [7, 17]: 12 h
- time after spinal cord transection until bloody eyes and nose condition had abated [7, 17]: ≤ 36 h
- time post injection until return of reflexes (tail-flick, cross-extension) ([7]; after each intraperitoneal administration, starting 24 hours post-transection): ≤ 12 min
- period until walking movements of the hind limbs coordinated with the front limbs, proper plantar placement and full weight bearing ([7]; six spinal transected rats, 5.0 mg/kg intraperitoneal from 24 hours post surgery): 7 to 9 days
- signs of sedation or lethargy during the course of treatment ([7]; spinal transected rats, 5.0 mg/kg intraperitoneal): did not exhibit any signs of sedation or lethargy
- time until the response became sustained with long-term restoration of coordinated movements ([7]; spinal transected rats, intraperitoneal): 8 to 11 days
- time until marked decrease in spasticity ([13]; three spastic control rats three weeks after transection): ≤ 4 days
- time until complete elimination of spasticity ([13]; three spastic control rats): 7 days
- blood pressure immediately after administration [14]: slight increase
- time until blood pressure returned to basal level [14]: ≤ 10 min

SMILES: CCCC(C)C1(CC)C(=O)NC(=O)NC1=O (stereo not drawn) [pentabarbital]
- appearance of ears and digits of anesthetized animals ([2]; I.P.): semi-cyanotic
- survival at the given doses ([2]; I.P.): did not survive
- reflexes tested (as in Examples 48–53) ([2]; I.P.): disappeared
- mean core temperature one hour after injection [9]: 29.3 °C

SMILES: CN1C(=O)CN=C(c2ccccc2)c2cc(Cl)ccc21 [diazepam]
- anesthesia judged by reflexes (patellar, urethro-anal, startle, corneal etc.) after 30 minutes ([2]; I.P.): all such reflexes were present
- core temperature twenty minutes after injection ([9]; room temperature 21° C.): no change
